According to the SangsterLogP compilation:

Conditions: not given

Compared with CNC(=N[N+](=O)[O-])NCCSCc1nc[nH]c1C, O=C(NCCO)C(F)(F)Cn1cnc([N+](=O)[O-])n1 is lower in logP: 0.13 for the first, -0.77 for the second.

Compared with CC(O)Cc1ccccc1 (centres undefined), CC(=O)COc1ccccc1 is lower in logP: 1.97 for the first, 1.04 for the second.

Going from O=C(O)Cn1ccnc1[N+](=O)[O-] to CC(=O)Nc1ncc([N+](=O)[O-])s1, the logP rises from -0.34 to 1.3.

First: O=C(O)COc1cc(F)cc(I)c1
Second: CC(=O)Nc1ncnc2c1ncn2C
The logP of the first is higher: 2.42 for the first, -0.41 for the second.

O=C1C(=O)c2ccccc2-c2ccccc21 and O=C1c2ccccc2C(=O)N1c1ccccc1 are within 0.2 log units of each other in logP: 2.52 for the first, 2.4 for the second.

Going from CC(C)CN(C)CC(C)C to CC(C)NC(C)C, the logP falls from 2.34 to 1.4.

Going from Cc1cccc(OCC(O)CNC(C)C)c1 (centres undefined) to CCOc1cccnc1, the logP falls from 2.02 to 1.44.

Going from ClCC#CCCl to C#CCN(CC#C)CC#C, the logP falls from 2.01 to 1.27.

CNC(=O)Oc1cccc2c1OC(C)(C)O2 and COC(=O)c1ccccc1N are within 0.2 log units of each other in logP: 1.7 for the first, 1.88 for the second.

Compared with Nc1ccccc1SSc1ccccc1N, O=[N+]([O-])c1ccccc1SSc1ccccc1[N+](=O)[O-] is higher in logP: 3.05 for the first, 3.37 for the second.

CON=C(Cc1cccnc1)c1ccc(Cl)cc1Cl and O=C(Nc1ccc(Cl)cc1)c1cccnc1 are within 0.2 log units of each other in logP: 2.51 for the first, 2.53 for the second.

First: COP(=O)(OC)OC(C)=CC(=O)N(C)C
Second: COC(=O)/C=C/C(=O)OC
The logP of the first is lower: 0 for the first, 0.74 for the second.

Compared with CN(C)c1ccc2c(c1)C(=O)N(O)C2=O, CNC1=CC(=O)c2ccccc2C1=O is higher in logP: 1.27 for the first, 1.74 for the second.

Going from O=C1C(Br)=C(N2CC2)C(=O)C(Br)=C1N1CC1 to CN1C(=O)CCC1=O, the logP falls from 2.03 to -0.95.

Compared with CC(C)(C)C(O)(CCc1ccc(Cl)cc1)Cn1cncn1 (centres undefined), N#CC(CCc1ccc(Cl)cc1)(Cn1cncn1)c1ccccc1 (centres undefined) is lower in logP: 3.7 for the first, 3.23 for the second.

Going from CN(C)C(=O)c1ccccc1O to CNC(=O)c1ccccc1C(=O)c1ccccc1, the logP rises from 0.44 to 2.09.

First: CNC1=CC(=O)C(NC)=CC1=O
Second: CC1CN1C1=CC(=O)C(N2CC2C)=CC1=O (centres undefined)
The logP of the first is lower: 0.34 for the first, 1.07 for the second.

Compared with CSc1nc2nc(Cl)ccc2[nH]1, Cc1ccc2[nH]c(N)nc2c1 is lower in logP: 2.39 for the first, 1.11 for the second.

Going from Nc1cc(C(F)(F)F)ccc1Cl to Nc1ccc(Cl)c([N+](=O)[O-])c1, the logP falls from 3.06 to 2.06.

Compared with CNCCN(C)C, CCCCOC is higher in logP: -0.2 for the first, 1.66 for the second.

First: NC(=O)Nc1nc(-c2ccccc2)no1
Second: Clc1nc(-c2ccccc2)nc2ccccc12
The logP of the first is lower: 1.76 for the first, 4.47 for the second.

Going from O=C(CCn1cnc([N+](=O)[O-])n1)NCCO to CCn1cnc([N+](=O)[O-])n1, the logP rises from -1.32 to -0.23.

Going from CCCCn1cnc2c(NC(C)=O)ncnc21 to CCCCCn1cnc2c(NC(C)=O)ncnc21, the logP rises from 0.55 to 0.98.

Compared with Cc1ccc(-c2noc(C)n2)cc1, Cc1ccc(N(SC(F)(Cl)Cl)S(=O)(=O)N(C)C)cc1 is higher in logP: 2.74 for the first, 3.95 for the second.

First: NNP(=O)(Oc1ccccc1)Oc1ccccc1
Second: CN(C(=S)c1ccccc1)c1ccccc1
The logP of the first is lower: 1.51 for the first, 3.12 for the second.

Going from CC(C)I to CC(=O)C(C)C, the logP falls from 2.89 to 0.84.

Compared with CCCn1cnc2c(NC(C)=O)ncnc21, CCn1cnc2c(NC(C)=O)ncnc21 is lower in logP: 0.09 for the first, -0.41 for the second.

Compared with CC(C)C(C#N)Cc1ccc(Cl)cc1 (centres undefined), N#CCc1ccc([N+](=O)[O-])cc1 is lower in logP: 3.41 for the first, 1.37 for the second.

Going from CCCCC(=O)OC to CCCC(=O)OC, the logP falls from 1.96 to 1.29.

Compared with N#Cc1cccc(C#N)c1, N#Cc1cccc(C=O)c1 is higher in logP: 0.8 for the first, 1.18 for the second.

First: O=C1C=C(Br)C(=O)c2ccccc21
Second: O=C(O)CCC(=O)c1ccc(N2Cc3ccccc3C2=O)cc1
The logP of the first is higher: 2.44 for the first, 1.92 for the second.

Going from COC(=O)C1=CCCN(C)C1 to CN1CCCC1=O, the logP falls from 0.35 to -0.54.

Going from CC1NC(=O)C(CC(=O)N[C@@H](Cc2c[nH]c3ccccc23)C(=O)N[C@@H](Cc2ccccc2)C(=O)N(C)Cc2ccccc2)NC1=O (some centres undefined) to CC(C)[C@H](NC(=O)[C@H](Cc1ccccc1)NC(=O)OC(C)(C)C)C(=O)O, the logP falls from 3.18 to 2.88.

Compared with CC(C)(C)c1cccc(C(C)(C)C)n1, Cc1ccc(C)[nH]1 is lower in logP: 4.14 for the first, 1.47 for the second.

Compared with N#CC1CC1, C1COC1 is lower in logP: 0.29 for the first, -0.14 for the second.

Compared with Clc1cc(Cl)c2cc(Cl)ccc2c1, Cn1c(N)nc2cc(Cl)c(Cl)cc21 is lower in logP: 5.35 for the first, 2.98 for the second.

Going from Cc1ccc(C(=O)COc2c(C(=O)c3ccc(Cl)c(C)c3Cl)c(C)nn2C)cc1 to CN(C)c1ccc(C(=O)c2ccc(N(C)C)cc2)cc1, the logP falls from 4.69 to 3.87.

Going from CNC=O to CNC(=O)c1ccoc1, the logP rises from -0.97 to 0.34.

CC(=O)OC(C)(C)C and COC(=O)C(C)(C)C are within 0.2 log units of each other in logP: 1.76 for the first, 1.83 for the second.

First: CCOC(=O)CCN(Cc1ccccc1)SN(C)C(=O)ON=C(C)SC
Second: CN(C)N=Nc1ccc(CCCC(=O)O)cc1
The logP of the first is higher: 3.43 for the first, 2.62 for the second.

Compared with CCCN(CCC)c1c([N+](=O)[O-])cc(S(N)(=O)=O)cc1[N+](=O)[O-], Nc1c([N+](=O)[O-])cccc1[N+](=O)[O-] is lower in logP: 3.73 for the first, 1.79 for the second.

First: C1=c2ccc3cccc4ccc(c2c43)CC1
Second: Cc1ccc(/N=C/N(C)/C=N/c2ccc(C)cc2C)c(C)c1
The logP of the first is lower: 4.92 for the first, 5.5 for the second.

Going from O=C1CC(Sc2nc3ccccc3s2)N1 (centres undefined) to c1ccc(-c2ccncn2)cc1, the logP falls from 2.3 to 1.92.

Compared with O=c1n[n+]([O-])ccn1[C@@H]1O[C@H](CO)[C@@H](O)[C@H]1O, CC(=O)OC[C@H]1O[C@@H](n2ncc(=O)[nH]c2=O)[C@H](OC(C)=O)[C@@H]1OC(C)=O is higher in logP: -2.43 for the first, -0.2 for the second.

First: BrC(Br)(Br)Br
Second: O=[N+]([O-])c1ccco1
The logP of the first is higher: 3.42 for the first, 0.66 for the second.

Compared with CCCCC(NC(Cc1ccccc1)C(=O)N1CCC(OCOC)CC1)C(=O)NC(CC1CCCCC1)C(O)CC(C(=O)NCCNC(N)=NC#N)C(C)C (centres undefined), Cc1c(COC(=O)[C@@H]2[C@H](/C=C(\Cl)C(F)(F)F)C2(C)C)cccc1-c1ccccc1 is higher in logP: 4.14 for the first, 6 for the second.

Going from c1ccc(P(c2ccccc2)c2ccccc2)cc1 to Cn1cccc1C=NNC(=O)Nc1ccccc1, the logP falls from 5.69 to 2.71.

Compared with O=C(CCBr)N1CCN(C(=O)CCBr)CC1, BrCCCBr is higher in logP: 0.42 for the first, 2.37 for the second.

Going from CC#CC#CC to CC(C)SC(C)C, the logP rises from 2.24 to 2.84.

Compared with Cc1cscn1, Cc1ncc[nH]1 is lower in logP: 0.97 for the first, 0.24 for the second.

Compared with COC(=O)CC(=O)OC, COC(=O)CCCC(=O)OC is higher in logP: -0.05 for the first, 0.62 for the second.

First: C[C@H](NC(=O)N(CCCl)N=O)C(=O)O
Second: CCC(C)OC(C)=O (centres undefined)
The logP of the first is lower: 0.78 for the first, 1.72 for the second.

Going from NC(=O)C(Cl)Cl to COC(=O)C(Cl)(Cl)Cl, the logP rises from 0.19 to 2.03.

Going from CCC1OC(=O)C(C)C(OC2CC(C)(OC)C(O)C(C)O2)C(C)C(OC2OCC(O)C(N=[N+]=[N-])C2O)C(C)(O)CC(C)C(=O)CC(O)C1(C)O (centres undefined) to CC(C)(C)NC(=O)[C@H]1CC[C@H]2[C@@H]3CC[C@H]4NC(=O)C=C[C@]4(C)[C@H]3CC[C@]12C, the logP rises from 1.76 to 3.03.

Compared with C=C(C)Cl, CCNC(=O)c1ccoc1 is lower in logP: 2 for the first, 0.72 for the second.

Going from CCC12CCN(C)C(Cc3ccc(O)cc31)C2C (centres undefined) to O=C(NCCN1CCC(O)(c2ccc(Cl)cc2)CC1)c1ccc(F)cc1, the logP rises from -1.14 to 2.85.

Compared with ICCCI, OCCCF is lower in logP: 3.02 for the first, -0.28 for the second.

Compared with CCCCc1c(C)[nH]c(N(C)C)nc1=O, CC(C)C(C)OCc1cn(C)c(C=NO)n1 (centres undefined) is higher in logP: 1.9 for the first, 2.53 for the second.

Going from Cc1ccno1 to CN(C)N=Nc1nccs1, the logP rises from 0.45 to 1.27.

Compared with CC1(C)N=C(N)N=C(N)N1c1cccc(OCCOc2ccccc2)c1, N#Cc1ccc2[nH]c(N)nc2c1 is higher in logP: -0.84 for the first, 1.13 for the second.

Nc1cc(Cl)c(Cl)cc1N gave a logP of 2.

Same assay, conditions: pH 1.0

With O=C(O)Cc1ccc2ccccc2c1 the logD was 2.81.

Same assay, conditions: pH 2.1

With CCCCCCOc1ccc(S(N)(=O)=O)cc1[N+](=O)[O-] the logD was 3.03.

Same assay, conditions: pH 3.5

Work on CC1=C(C(=O)O)N2C(=O)C(NC(=O)C(O)c3ccccc3)C2SC1 (centres undefined) yielded a logD of 0.46.

Same assay, conditions: pH 4.0

CC(=NNc1ccc([N+](=O)[O-])cc1[N+](=O)[O-])C(F)(F)F showed a logD of 3.3.

Same assay, conditions: pH 4.2

Work on NC(=O)c1nc[nH]c1N=NN(CCO)CCO yielded a logD of -1.04.

Same assay, conditions: pH 7.0

First: Nc1nc(Cl)c2ncn([C@@H]3O[C@H](CO)C[C@@H]3F)c2n1
Second: CNc1ncnc2c1ncn2[C@H]1C[C@H](O)[C@@H](CO)O1
The logD of the first is higher: 0.28 for the first, -0.19 for the second.

COc1cccc2c1C(=O)c1c(O)c3c(c(O)c1C2=O)CC(O)(C(=O)CO)CC3OC1CC(O)C(O)C(C)O1 (centres undefined) gave a logD of 1.75.

Same assay, conditions: pH 7.4

Compared with Cn1c([N+](=O)[O-])cnc1COc1ccc(Cl)cc1, Cn1c([N+](=O)[O-])cnc1-c1ccc(N)cc1 is lower in logD: 1.8 for the first, 1.06 for the second.

Going from Cc1cc(CCCCCCCOc2ccc(C3=NCCO3)cc2)on1 to Cn1c(N)nc2ncc(-c3ccccc3)cc21, the logD falls from 4.79 to 2.23.

First: OC[C@H]1O[C@@H](n2cnc3c2NC=NC[C@H]3O)C[C@@H]1O
Second: c1ccc(C23CCCN2CCO3)cc1 (centres undefined)
The logD of the first is lower: -2.09 for the first, 1.04 for the second.

Going from CCCc1ncc([N+](=O)[O-])n1CCNC(=S)OC to Cc1ncc([N+](=O)[O-])n1CC(O)CCl (centres undefined), the logD falls from 1.94 to 0.58.

Going from CCCc1ccc([N+](=O)[O-])cc1 to CCc1ccc([N+](=O)[O-])cc1, the logD falls from 3.45 to 3.03.

Going from Cc1cc2c3ccccc3nc-2[nH]c1N to Nc1ccc2nc3ccccn3c2n1, the logD falls from 2.9 to 1.38.

Compared with Cn1c(N)nc2c3nccnc3ccc21, c1ccc(COc2cccc3cccnc23)cc1 is higher in logD: 1.01 for the first, 3.51 for the second.

Compared with CS(=O)c1ccc2c(c1)C(c1ccccc1)=NCC(=O)N2 (centres undefined), Nc1ccc(Sc2ccc(N)cc2)cc1 is higher in logD: 0.8 for the first, 2.18 for the second.

CCc1nc(C)c([N+](=O)[O-])[nH]1 gave a logD of 0.76.

Same assay, conditions: pH 8.4

Work on Cn1ccnc1 yielded a logD of -0.06.

Same assay, conditions: pH 11.0

For OCCCOc1cccc(CN2CCCCC2)c1, the logD was 2.78.

Same assay, conditions: pH 11.3

Molecule CC(=O)NCCCOc1cccc(CN2CCCCC2)c1 has a logD of 2.15.

Same assay, conditions: pH 13.0

First: CC(C)CN(CC(O)COc1ccccc1)CC(O)COc1ccccc1 (centres undefined)
Second: N=C(N)c1ccccc1
The logD of the first is higher: 3.46 for the first, 0.65 for the second.

Compared with CN(C1CCCCC1)C1CCCCC1, C[C@@H]1CCC[C@H](C)N1 is lower in logD: 3.71 for the first, 1.53 for the second.

Going from NNc1ccc([N+](=O)[O-])cc1 to CC(=O)c1ccc(N2CCCCC2)cc1, the logD rises from 1.41 to 3.13.

First: NCCCN1CCN(CCCN)CC1
Second: CN1CCN(C)CC1
The logD of the first is lower: -1.43 for the first, -0.4 for the second.

Going from Cc1cc(C)c(N(C)C)c(C)c1 to CC(C)(C)NCCO, the logD falls from 4.44 to 0.41.
